≈ marks a conversion by molar mass, not a printed value. Bridge positions count the residues as written; N and C are the ends. Square brackets hold non-standard residues; d marks the D form. Peptide text beside a SMILES is read from it. * marks the point of attachment. Myristoyl = CCCCCCCCCCCCCC(=O)*; Orn = NCCC[C@H](N)C(=O)O; Dab = NCC[C@H](N)C(=O)O; Dap = NC[C@H](N)C(=O)O
Key:
[1] = system: B. subtilis ATCC 23857; test: MIC assay (broth micro-dilution); type: cell-based; settings: Table S11; LB broth, 37 °C, 16 h, n = 2
In short: (§1)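 Growth inhibition read visually; MIC taken as lowest inhibitory concentration. LB medium; inocula from overnight cultures diluted 5000-fold, S. aureus 10000-fold. Peptide range 64 to 0.125 µg mL^−1 (2-fold, pre-mix), two independent determinations.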

[2] = system: Escherichia coli DH5α; test: MIC assay (broth micro-dilution); type: cell-based; settings: Table S11; LB broth, 37 °C, 16 h, n = 2
In short: as §1

[3] = system: Acinetobacter baumannii 1104008; test: microbe, parasite or virus in culture; type: cell-based; settings: Table S11; LB broth, 37 °C, 16 h, n = 2
In short: as §1

[4] = system: Acinetobacter baumannii ATCC 17978; test: microbe, parasite or virus in culture; type: cell-based; settings: ATCC 17978, 16 h
In short: as §1

[5] = system: Acinetobacter baumannii ATCC 19606; test: microbe, parasite or virus in culture; type: cell-based; settings: ATCC 19606, 16 h
In short: as §1

[6] = system: Enterococcus faecalis 26; test: microbe, parasite or virus in culture; type: cell-based; settings: 26, 16 h
In short: as §1

[7] = system: Enterococcus faecalis 28; test: microbe, parasite or virus in culture; type: cell-based; settings: 28, 16 h
In short: as §1

[8] = system: Enterococcus faecalis ATCC 29212; test: microbe, parasite or virus in culture; type: cell-based; settings: ATCC 29212, 16 h
In short: as §1

[9] = system: Enterococcus faecium 35682; test: microbe, parasite or virus in culture; type: cell-based; settings: Table S11; LB broth, 37 °C, 16 h, n = 2
In short: as §1

[10] = system: Klebsiella pneumoniae ATCC 13883; test: microbe, parasite or virus in culture; type: cell-based; settings: ATCC 13883, 16 h
In short: as §1

[11] = system: Klebsiella pneumoniae CRKP 5452; test: microbe, parasite or virus in culture; type: cell-based; settings: for MIC Klebsiella pneumoniae CRKP 5452: Table S11, LB broth, 37 °C, 16 h, n = 2
In short: as §1

[12] = system: Klebsiella pneumoniae CRKP HS11286; test: microbe, parasite or virus in culture; type: cell-based; settings: for MIC Klebsiella pneumoniae CRKP HS11286: CRKP HS11286, 16 h
In short: as §1

[13] = system: Klebsiella pneumoniae NCTC 5056; test: microbe, parasite or virus in culture; type: cell-based; settings: NCTC 5056, 16 h
In short: as §1

[14] = system: Pseudomonas aeruginosa ATCC 9027; test: microbe, parasite or virus in culture; type: cell-based; settings: ATCC 9027, 16 h
In short: as §1

[15] = system: Pseudomonas aeruginosa PAO1; test: microbe, parasite or virus in culture; type: cell-based
In short: as §1

[16] = system: Salmonella enterica ATCC 14028; test: microbe, parasite or virus in culture; type: cell-based; settings: ATCC 14028, 16 h
In short: as §1

[17] = system: Salmonella typhimurium LXX; test: microbe, parasite or virus in culture; type: cell-based; settings: murium LXX, 16 h
In short: as §1

[18] = system: Staphylococcus aureus ATCC 25923; test: microbe, parasite or virus in culture; type: cell-based; settings: ATCC 25923, 16 h
In short: as §1

[19] = system: Staphylococcus aureus ATCC 6538; test: microbe, parasite or virus in culture; type: cell-based; settings: ATCC 6538, 16 h
In short: as §1

[20] = system: Staphylococcus aureus Newman; test: microbe, parasite or virus in culture; type: cell-based; settings: Newman, 16 h
In short: as §1

[21] = system: Staphylococcus aureus USA300; test: microbe, parasite or virus in culture; type: cell-based; settings: for MIC Staphylococcus aureus USA300: Table S11, LB broth, 37 °C, 16 h, n = 2
In short: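 MIC = lowest peptide concentration with no visible growth; LB broth microdilution, n = 2. Inoculum: overnight culture diluted 5000× (S. aureus 10000×). Peptides serially diluted 2-fold, 64–0.125 µg mL^−1 in the broth added to cells.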

[22] = system: Streptococcus mutans ATCC 25175; test: microbe, parasite or virus in culture; type: cell-based; settings: ATCC 25175, 16 h
In short: as §1

[23] = system: Streptococcus pyogenes ATCC 19615; test: microbe, parasite or virus in culture; type: cell-based; settings: Table S11; LB broth, 37 °C, 16 h, n = 2
In short: as §1

[24] = system: Vibrio alginolyticus XSBZ14; test: microbe, parasite or virus in culture; type: cell-based; settings: 16 h
In short: as §1

[25] = system: Candida albicans ATCC 10231; test: MIC assay (YPD broth); type: cell-based; settings: Table S11; YPD broth, 30 °C, 16 h, n = 2
Procedure: All MIC assays were performed two independent times (n = 2) in 96‐well plates using a broth micro‐dilution method. The lowest concentration of that inhibited visible microbial growth was recorded as the MIC value.
For fungal strains, overnight cultures were diluted 2000‐fold in YPD broth. 100 µL of diluted cells was mixed with 100 µL of YPD broth containing each peptide ranging from […] 64 to 0.125 µg mL^−1 at 2‐fold serial dilutions.

[26] = Isothermal titration calorimetry; type: binding, Escherichia coli O55:B5; settings: Table S12; ITC, 2 mM LPS into 0.2 mM peptide, in H2O, 20 injections
Procedure: Calorimetric experiments were performed to evaluate the interaction between CL, PE, PG, or LPS and aquicidine L or aquicidine C4. To determine the affinity between aquicidine L or aquicidine C4 and CL, PE, or PG, both 2 mM CL, PE, or PG and 0.2 mM aquicidine L or aquicidine C4 were dissolved in 20 mM HEPES buffer (pH 7.5). To determine the interaction between LPS and aquicidine L or aquicidine C4, 2 mM LPS and 0.2 mM aquicidine L or aquicidine C4 were dissolved in H2O. Sequential injections of CL, PE, PG, or LPS into the calorimetric cell filled with aquicidine L or aquicidine C4 were repeated 20 times with equilibration intervals of 200 s. Data were collected by using a MicroCal PEAQ‐ITC instrument and calculated for the equilibrium dissociation constant (KD), change of enthalpy (ΔH), and change of entropy […].

[27] = system: S. aureus USA300; test: Membrane component feeding assay; type: cell-based; settings: for inhibition of antibacterial activity by MK, UQ or PC: feeding 2 to 128 µg mL^−1, S. aureus USA300 (PC also E. coli DH5α), Figure S125
Procedure: The effects of bacterial membrane components on aquicidine L's or aquicidine C4's anti‐bacterial activities were evaluated using E. coli DH5α or S. aureus USA300. […] All experiments were done in triplicate (n = 3) and repeated two independent times (n = 2).

[28] = system: E. coli
[29] = system: S. aureus USA300; test: Scanning electron microscopy of treated cultures; type: cell-based; settings: 4× the MIC, after 180 min of treatment

| Compound | MIC Bacllussubtilis ATCC 23857 [1] [µg/mL] | MIC Escherichia coli DH5α [2] [µg/mL] | MIC Acinetobacter baumannii 1104008 [3] [µg/mL] | MIC Acinetobacter baumannii ATCC 17978 [4] [µg/mL] | MIC Acinetobacter baumannii ATCC 19606 [5] [µg/mL] | MIC Enterococcus faecalis 26 [6] [µg/mL] | MIC Enterococcus faecalis 28 [7] [µg/mL] | MIC Enterococcus faecalis ATCC 29212 [8] [µg/mL] | MIC Enterococcus faecium 35682 [9] [µg/mL] | MIC Klebsiella pneumoniae ATCC 13883 [10] [µg/mL] | MIC Klebsiella pneumoniae CRKP 5452 [11] [µg/mL] | MIC Klebsiella pneumoniae CRKP HS11286 [12] [µg/mL] | MIC Klebsiella pneumoniae NCTC 5056 [13] [µg/mL] | MIC Pseudomonas aeruginosa ATCC 9027 [14] [µg/mL] | MIC Salmonella enterica ATCC 14028 [16] [µg/mL] | MIC Salmonella typhimurium LXX [17] [µg/mL] | MIC Staphylococcus aureus ATCC 25923 [18] [µg/mL] | MIC Staphylococcus aureus ATCC 6538 [19] [µg/mL] | MIC Staphylococcus aureus Newman [20] [µg/mL] | MIC Staphylococcus aureus USA300 [21] [µg/mL] | other results |
| --- | --- | --- | --- | --- | --- | --- | --- | --- | --- | --- | --- | --- | --- | --- | --- | --- | --- | --- | --- | --- | --- |
| CCCCCCCCCCCCCC(=O)N[C@@H](CN)C(=O)N[C@H](C(=O)N[C@@H](CC(C)C)C(=O)N[C@@H](CO)C(=O)N[C@@H](CCN)C(=O)N[C@@H](CN)C(=O)N[C@@H](Cc1ccccc1)C(=O)N[C@H](C(=O)N[C@@H](CCCN)C(=O)N[C@@H](CC(N)=O)C(=O)N[C@@H](Cc1ccccc1)C(=O)O)[C@@H](C)CC)[C@@H](C)O [synAQU5-L] (Myristoyl-[Dap]TLS[Dab][Dap]FI[Orn]NF-OH) | 8 (≈ 5.56 µM) | 2 (≈ 1.39 µM) | 4 (≈ 2.78 µM) | 4 (≈ 2.78 µM) | 8 (≈ 5.56 µM) | 8 (≈ 5.56 µM) | 16 (≈ 11.1 µM) | 32 (≈ 22.3 µM) | 16 (≈ 11.1 µM) | 8 (≈ 5.56 µM) | 4 (≈ 2.78 µM) | 4 (≈ 2.78 µM) | 8 (≈ 5.56 µM) | 4 (≈ 2.78 µM) | 4 (≈ 2.78 µM) | 8 (≈ 5.56 µM) | 32 (≈ 22.3 µM) | 16 (≈ 11.1 µM) | 32 (≈ 22.3 µM) | 16 (≈ 11.1 µM) | antibacterial activity (MIC) K. pneumoniae CRKP 5452 ([11]; Figure S127a, wild type): 4 µg/mL; antibacterial activity (MIC) K. pneumoniae CRKP HS11286 ([12]; Figure S127a): 4 µg/mL; MIC Pseudomonas aeruginosa PAO1 ([15]; Table S11, LB broth, 37 °C, 16 h, n = 2): 4 µg/mL (≈ 2.78 µM); MIC Streptococcus mutans ATCC 25175 [22]: 16 µg/mL (≈ 11.1 µM); MIC Streptococcus pyogenes ATCC 19615 [23]: 8 µg/mL (≈ 5.56 µM); MIC Vibrio alginolyticus XSBZ14 [24]: 8 µg/mL (≈ 5.56 µM); MIC Candida albicans ATCC 10231 [25]: > 64 µg/mL; Kd [26]: 0.29 µM; inhibition of antibacterial activity by MK, UQ or PC [27]: did not show dose‐dependent inhibition; resistant mutants by direct plating [28]: failed to identify E. coli resistant mutants |
| CCCCCCCCCCCCCC(=O)N[C@@H](CN)C(=O)N[C@H](C(=O)N[C@@H](CC(C)C)C(=O)N[C@H]1COC(=O)[C@H](Cc2ccccc2)NC(=O)[C@H](CC(N)=O)NC(=O)[C@H](CCCN)NC(=O)[C@H]([C@@H](C)CC)NC(=O)[C@H](Cc2ccccc2)NC(=O)[C@H](CN)NC(=O)[C@H](CCN)NC1=O)[C@@H](C)O [synAQU5-C4] (Myristoyl-[Dap]TLS[Dab][Dap]FI[Orn]NF; ester 4-C) | 2 (≈ 1.41 µM) | 8 (≈ 5.63 µM) | 16 (≈ 11.3 µM) | 32 (≈ 22.5 µM) | 32 (≈ 22.5 µM) | 2 (≈ 1.41 µM) | 4 (≈ 2.82 µM) | 4 (≈ 2.82 µM) | 4 (≈ 2.82 µM) | > 64 | 32 (≈ 22.5 µM) | 32 (≈ 22.5 µM) | > 64 | 16 (≈ 11.3 µM) | 32 (≈ 22.5 µM) | 32 (≈ 22.5 µM) | 4 (≈ 2.82 µM) | 4 (≈ 2.82 µM) | 4 (≈ 2.82 µM) | 4 (≈ 2.82 µM) | MIC Pseudomonas aeruginosa PAO1 ([15]; PAO1, 16 h): 32 µg/mL (≈ 22.5 µM); antibacterial activity (MIC) S. aureus USA300 ([21]; Figure S127b, wild type): 4 µg/mL; MIC Streptococcus mutans ATCC 25175 [22]: 4 µg/mL (≈ 2.82 µM); MIC Streptococcus pyogenes ATCC 19615 [23]: 2 µg/mL (≈ 1.41 µM); MIC Vibrio alginolyticus XSBZ14 [24]: 32 µg/mL (≈ 22.5 µM); MIC Candida albicans ATCC 10231 [25]: > 64 µg/mL; Kd [26]: 1.84 µM; scanning electron microscopy, cell lysis [29]: lysed the majority of cells; inhibition of antibacterial activity by CL and PG ([27]; feeding 2 to 128 µg mL^−1, S. aureus USA300, Figure 5d): stronger dose‐dependent inhibition; inhibition of antibacterial activity by MK, UQ or PC [27]: did not show dose‐dependent inhibition |

Reference: PMC12677607, “Identification of a Pair of Linear or Cyclic Naturally Inspired Bifunctional Lipopeptide Antibiotics That Overcome Antimicrobial Resistance” (Advanced Science, 2025)
